Assay [1] deals with Human immunodeficiency virus type 1 protease (Human immunodeficiency virus 1) (UniProt Q72874). The assay is described as follows: Inhibition of HIV protease.
The test system of assay [2] is Bovine viral diarrhea virus 1. The experiment in a line: Antiviral activity against BVDV. Type of assay: functional, organism-based.
In assay [3] the test system is Human immunodeficiency virus 1. The assay is described as follows: Antiviral activity against HIV1 T66I, L172F mutant. Type of assay: functional, organism-based.
A further assay has as its system Enterovirus. The experiment in a line: Antiviral activity against Rhinovirus. It is filed as functional, organism-based.
Assay [4] concerns Respiratory syncytial virus. The assay is described as follows: Antiviral activity against RSV. It is filed as functional, organism-based.
The target of assay [5] is Genome polyprotein (Bovine viral diarrhea virus (strain CP7) (BVDV) (Mucosal diseasevirus)) (UniProt Q96662). The assay is described as follows: Inhibition of BVDV polymerase. The settings on record: Bovine viral diarrhea virus 1.
For assay [6], the system named is Human immunodeficiency virus 1. The experiment in a line: Antiviral activity against HIV1. Type of assay: functional, organism-based.
Assay [7] concerns the target T1, Human immunodeficiency virus type 1 integrase (Human immunodeficiency virus 1, UniProt Q7ZJM1).
The target of assay [8] is T1, Human immunodeficiency virus type 1 integrase. The source holds these as a separate data set.
Assay [9] deals with DNA polymerase I (Escherichia coli) (UniProt P00582). The assay is described as follows: Inhibition of Klenow fragment.
In assay [10] the test system is Human immunodeficiency virus 1. The experiment in a line: Antiviral activity against wild-type HIV1 NL4-3. Type of assay: functional, organism-based. The settings on record: Human immunodeficiency virus 1, NL4-3.
A further assay deals with Enterobacteria phage T3. The experiment in a line: Inhibition of T3 polymerase.
In assay [11] the test system is Human immunodeficiency virus 1. The assay is described as follows: Antiviral activity against HIV1 V151A, V165I mutant. It is filed as functional, organism-based.
Assay [12] concerns Human immunodeficiency virus 1. The assay is described as follows: Antiviral activity against HIV1 NL4-3 T66I mutant. As to conditions: Human immunodeficiency virus 1, NL4-3. It is filed as functional, organism-based.
The target of assay [13] is T1, Human immunodeficiency virus type 1 integrase. The experiment in a line: Inhibition of HIV1 recombinant integrase in pre-integration complex.
Assay [14] addresses Human immunodeficiency virus type 1 reverse transcriptase (Human immunodeficiency virus 1) (UniProt Q72547). The experiment in a line: Inhibition of HIV-RT.

Active and inactive are the calls of the source. The rule behind the calls is not given here.

On to `O=C(CC(=O)C(=O)O)CC(=O)c1ccccc1Cl`, for which the result (in assay [1]; in assay [2]; in the assay on Enterovirus; in assay [4]; in [5]; in assay [9]) was inactive. Besides, the result (with Enterobacteria phage T3; in [14]) was inactive. Moreover, the EC50 – broadly, the concentration needed to bring the measured effect to its halfway point – is above 200 µM in assay [3]; 120 µM in assay [6]; 55 µM in assay [10]; above 200 µM in assay [11]; above 200 µM in assay [12]. Besides, the concentration for half-maximal inhibition (IC50) (in general, the point on the concentration scale where inhibition reaches its midpoint) in [7] amounted to 1 µM; in assay [8] it was 0.2 µM; in assay [13], 0.6 µM.

Regarding `O=C(CC(=O)C(=O)O)CC(=O)c1ccc2ccccc2c1`, half-maximal inhibition in assay [7] (IC50) required 6 µM.

In the case of `O=C(CC(=O)C(=O)O)CC(=O)c1ccc(-c2ccccc2)cc1`, half-maximal inhibition in assay [7] (IC50) required 2 µM.

`O=C(CC(=O)C(=O)O)CC(=O)c1cccc2ccccc12` yielded a half-inhibitory concentration (IC50) in assay [7] of 0.6 µM.

In turn, `COc1ccccc1C(=O)CC(=O)CC(=O)C(=O)O` came in with an IC50 in assay [7] of 4 µM.

With `O=C(/C=C(\O)C(=O)O)CCc1ccccc1Br`, the IC50 in assay [7] stood at 5 µM.

In the case of `O=C(CC(=O)c1cccn1Cc1ccc(F)cc1)c1nnn[nH]1`, in assay [7], the concentration for half-maximal inhibition (IC50) was above 125 µM.

For `O=C(CC(=O)C(=O)O)CC(=O)c1cccnc1`, the IC50 in [7] is above 300 µM.

The compound `O=C(CCc1ccccc1Cl)CC(=O)C(=O)O` came in with a concentration for half-maximal inhibition (IC50) in [7] of 9 µM.

`O=C(CC(=O)C(=O)O)CC(=O)c1ccccc1F` had a half-inhibitory concentration (IC50) in assay [7] of 3 µM.

For `O=C(/C=C(\O)C(=O)O)CCc1ccccc1Cl`, in assay [7], the IC50 amounted to 26 µM.

Take `O=C(CC(=O)C(=O)O)CC(=O)c1ccccn1`: the IC50 in assay [7] stood at 100 µM.

With `O=C(CC(=O)C(=O)O)CC(=O)c1ccccc1`, half-maximal inhibition in assay [7] (IC50) required 80 µM.

In assay [7], `O=C(CC(=O)C(=O)O)CC(=O)c1ccccc1OCc1ccccc1` yielded an IC50 of 7 µM.

As for `O=C(CC(=O)c1nnn[nH]1)CC(=O)c1ccccc1Cl`, in assay [7], it took 125 µM to reach half-maximal inhibition (IC50).

`O=C(CC(=O)C(=O)O)CC(=O)c1cccc(Cl)c1` had an IC50 in assay [7] of 8 µM.

Consider `O=C(/C=C(\O)C(=O)O)CCc1ccc(Cl)c(Cl)c1`, for which the concentration for half-maximal inhibition (IC50) in assay [8] worked out at 0.01 µM.

`O=C(/C=C(\O)C(=O)O)CCc1ccccc1` gave an IC50 in assay [7] of 30 µM.

As to `O=C(O)C(=O)/C=C(\O)c1c[nH]c2ccc(Cl)cc12`, the half-maximal inhibitory concentration (IC50) in assay [7] was found to be 0.4 µM; in assay [8], 0.08 µM.

For the compound `O=C(CC(=O)C(=O)O)CC(=O)c1ccccc1C(F)(F)F`, the IC50 in assay [7] is 6 µM.

(Values after ChEMBL document CHEMBL1147712, “Triketoacid inhibitors of HIV-integrase: a new chemotype useful for probing the integrase pharmacophore” (Bioorg Med Chem Lett, 2006).)
